Like-named read-outs stand apart in the source and are kept apart here.
Columns and labels:
[1] = test system: CRF; design: method as in PMID 9179387; conditions: isolated hypothalamic in vitro; cited from earlier work
[2] = test system: CRF; design: method as in PMID 9179387; conditions: intraperitoneal injection to mice; cited from earlier work
[3] = test system: corticosterone; conditions: cited from earlier work
[4] = test system: Bmal1 mRNA; assay: Real-time RT-PCR of Bmal1 mRNA in peripheral tissues; format: in vivo, mice; conditions: after a single treatment
Description: (§1) Male C57BL/6J mice (7 weeks old) were purchased from Charles River Japan (Kanagawa, Japan) and used for the serum hormone assay and RT-PCR. Male ICR mice were purchased from Tokyo Laboratory Animals Science Co., Ltd. (Tokyo, Japan), and female PERIOD2::LUCIFERASE (PER2::LUC) knock-in mice (ICR background) bred at Waseda University were used for blood glucose measurements and in vivo imaging assays, respectively. The mice were all housed under conditions of controlled temperature (23 °C ± 3 °C), humidity (50% ± 20%), and lighting (lights on from 07:00 to 19:00 at Taisho Pharmaceutical Co., Ltd. or from 08:00 to 20:00 at Waseda University). In the 24 h cycle, Zeitgeber time 0 (ZT0) was designated as the time when the lights were turned on, and ZT12 was designated as the time when the lights were turned off. All the mice were given access to food and tap water ad libitum, and nobiletin (10–100 mg/kg; purchased from FUJIFILM Wako Pure Chemical Corporation, Osaka, Japan) was administered by intraperitoneal (i.p.) injection in the vehicle (10 mL/kg body weight) containing 0.5% carboxymethyl cellulose (CMC). Rolipram (PDE4 inhibitor, FUJIFILM Wako Pure Chemical Corporation) and SR1078 (RORα/γ agonist, FUJIFILM Wako Pure Chemical Corporation) were also used for the experiment at 10 mg/kg in 0.5% CMC [12]. Mice were euthanized by rapid decapitation for whole blood samples.
(§2) Figure 3 Nobiletin stimulated adrenaline and corticosterone secretion, and induced acute clock gene expression changes. (A–C) Mice received intraperitoneal injections of control (0.5% CMC) or nobiletin (10 or 100 mg/kg) at ZT3. (A) Serum corticosterone at 1 h after treatment (n = 6 in each). $$$ p < 0.001 by Tukey’s multiple comparisons test. (B) Serum corticosterone and adrenaline at 1, 2, and 4 h after treatment (n = 4 in each). # p < 0.05 vs. control at each time point by Mann–Whitney test; ** p < 0.01 vs. control at each time point by Student’s t-test. (C) Blood glucose changes after treatment (n = 9 in each). Statistics of 2-way repeated ANOVA are indicated on the graph. […]

[5] = test system: PDE4B; design: method as in PMID 22451408; conditions: cited from earlier work
[6] = test system: PDE1C; design: method as in PMID 22451408; conditions: cited from earlier work
[7] = test system: adrenaline; design: method as in PMID 9245486; conditions: intraperitoneal, 40–200 μg/kg; cited from earlier work
[8] = test system: Per2 mRNA; assay: Real-time RT-PCR of Per2 mRNA in peripheral tissues; format: in vivo, mice; conditions: stomach and lung, 2 h after 10 mg/kg i.p.
Description: as §1, with “samples. […]” for “samples.”

[9] = test system: serum corticosterone; assay: Serum corticosterone ELISA after i.p. injection; format: in vivo, mice; conditions: 10 mg/kg i.p. at ZT3, 1 h after treatment
Description: (§3) Male C57BL/6J mice (7 weeks old) were purchased from Charles River Japan (Kanagawa, Japan) and used for the serum hormone assay and RT-PCR. Male ICR mice were purchased from Tokyo Laboratory Animals Science Co., Ltd. (Tokyo, Japan), and female PERIOD2::LUCIFERASE (PER2::LUC) knock-in mice (ICR background) bred at Waseda University were used for blood glucose measurements and in vivo imaging assays, respectively. The mice were all housed under conditions of controlled temperature (23 °C ± 3 °C), humidity (50% ± 20%), and lighting (lights on from 07:00 to 19:00 at Taisho Pharmaceutical Co., Ltd. or from 08:00 to 20:00 at Waseda University). In the 24 h cycle, Zeitgeber time 0 (ZT0) was designated as the time when the lights were turned on, and ZT12 was designated as the time when the lights were turned off. […]
(§4) Serum corticosterone, adrenaline, and adreno-corticotropic hormone (ACTH) levels, and corticotropin releasing factor (CRF) in the hypothalamus, were measured using enzyme-linked immunosorbent assay (ELISA). […] Blood glucose levels were measured using a Glucose PILOT kit (Aventir Biotech, LLC, Carlsbad, CA, USA). The range of blood glucose that could be precisely measured with the kit was 20–600 mg/dL. […]

[10] = test system: serum adrenaline; assay: Serum adrenaline ELISA after i.p. injection; format: in vivo, mice; conditions: 10 mg/kg i.p. at ZT3, 1 h after treatment
Description: as §3, §4

[11] = test system: Per1 mRNA; assay: Real-time RT-PCR of Per1 mRNA in peripheral tissues; format: in vivo, mice; conditions: stomach and lung, 2 h after 10 mg/kg i.p.
Description: as §1, §2

**Q.** Which CRF production [1] does the source give for `CCCCn1c(=O)c2c(ncn2CC(C)=O)n(CCCC)c1=O` [denbufylline] here?
**A.** The CRF production was “significant production of CRF”.

**Q.** What about the “CRF induction in vivo” value [2] of the same compound?
**A.** Its value is “produced CRF induction”.

**Q.** What about the corticosterone secretion ([3]; via the HPA system) of the same compound?
**A.** Its corticosterone secretion is “promotes corticosterone secretion”.

**Q.** With `O=C(Nc1ccc(C(O)(C(F)(F)F)C(F)(F)F)cc1)c1ccc(C(F)(F)F)cc1` [SR1078] as the compound, how does the Bmal1 expression [4] read?
**A.** Its Bmal1 expression is “did not change significantly”.

**Q.** What does the source list for `COc1cc(-c2cc(=O)c3c(O)c(OC)c(O)c(OC)c3o2)ccc1O` [Sudachitin]?
**A.** inhibition of PDE4B [5]: inhibit; inhibition of PDE1C [6]: inhibit

**Q.** Which adrenaline secretion [7] does the source give for `COc1ccc(C2CNC(=O)C2)cc1OC1CCCC1` (stereo not drawn) [rolipram] here?
**A.** Its adrenaline secretion is “increases”.

**Q.** And the “Per2 mRNA changes” value [8]?
**A.** The value was “detected”.

**Q.** And the corticosterone secretion [9]?
**A.** Its corticosterone secretion is “detected”.

**Q.** And the CRF production [1]?
**A.** Its CRF production is “significant production of CRF”.

**Q.** And the adrenaline secretion [10]?
**A.** Its adrenaline secretion is “detected”.

**Q.** What about the Bmal1 expression [4] of the same compound?
**A.** The Bmal1 expression was “did not change”.

**Q.** What about the “Per1 mRNA changes” value [11] of the same compound?
**A.** Its value is “detected”.

**Q.** And the corticosterone secretion ([3]; intraperitoneal, 40–200 μg/kg)?
**A.** The corticosterone secretion was “increases”.

**Q.** What about the serum corticosterone ([3]; low dose, 1.6 and 8 μg/kg) of the same compound?
**A.** Its serum corticosterone is “did not produce serum corticosterone increase”.
